According to publication PMC5949348, “The Metabolism of Separase Inhibitor Sepin-1 in Human, Mouse, and Rat Liver Microsomes” (Frontiers in Pharmacology, 2018):
Where “and” joins values, the source holds several entries; their conditions need not be identical. Equal entries are not always repeated. Where two headings read alike, the source gives them in different places.

Legend:
[1] = Metabolism of sepin-1 in human liver microsomes; type: in vitro ADME; conditions: 30 μM sepin-1, NADPH 1.0 mM, 30 min
Description: Incubations were conducted in 1× phosphate-buffered saline (1× PBS, pH 7.4), containing 30 μM sepin-1, 1.0 mg HLM, MLM, RLM, or 2 pmol of each cDNA-expressed P450 enzyme (control, CYP1A2, 2A6, 2B6, 2C8, 2C9, 2C19, 2D6, 2E1, and CYP3A4) in a final volume of 190 μl. After 5 min of pre-incubation at 37°C, the reaction was initiated by adding 10 μl of 20 mM NADPH (final concentration 1.0 mM) and continued for 30 min, with shaking at 37°C. Incubations lacking NADPH served as controls. Reactions were terminated with 200 μl of ice-cold methanol, followed by vortexing for 30 s and centrifuging at 15,000 × g for 15 min. Each supernatant was transferred to an auto sampler vial, and 5.0 μl was injected on to UHPLC coupled with a QTOFMS system for metabolite analysis. Incubations were conducted in quadruplicate for HLM, in triplicate for MLM and RLM, and in duplicate for cDNA-expressed P450 enzymes.
The separation of sepin-1 and its metabolites was achieved using a 1260 Infinity Binary LC System (Agilent Technologies, Santa Clara, CA, United States) equipped with 100 mm × 2.1 mm (Agilent XDB C18) column. The column temperature was maintained at 40°C. The flow rate was 0.3 ml/min, with a gradient ranging from 2% to 98% aqueous acetonitrile containing 0.1% formic acid in a 15-min run. QTOFMS was operated in a positive mode with electrospray ionization. Ultra-high pure nitrogen was applied as the drying gas (12 l/min) and the collision gas. The drying gas temperature was set at 325°C, and the nebulizer pressure was kept at 35 psi. The capillary voltages were set at 3.5 kV. […]
Mass chromatograms and mass spectra were acquired by MassHunter Workstation Data Acquisition Software (Agilent, Santa Clara, CA, United States) in centroid and profile formats from m/z 100 to 1000. […] For the QQQMS data, QQQ Quantitative Analysis Software (Agilent, Santa Clara, CA, United States) was used for metabolite analysis. […] Statistical differences between two groups were determined by Student’s t-test.

CYP1A2 = biological target: T1, CYP1A2 (Homo sapiens, UniProt P05177); assay: Inhibition of sepin-1 on CYP1A2; type: in vitro ADME
T1 construct: purchased XenoTech
T1 sequence (P05177 1-516): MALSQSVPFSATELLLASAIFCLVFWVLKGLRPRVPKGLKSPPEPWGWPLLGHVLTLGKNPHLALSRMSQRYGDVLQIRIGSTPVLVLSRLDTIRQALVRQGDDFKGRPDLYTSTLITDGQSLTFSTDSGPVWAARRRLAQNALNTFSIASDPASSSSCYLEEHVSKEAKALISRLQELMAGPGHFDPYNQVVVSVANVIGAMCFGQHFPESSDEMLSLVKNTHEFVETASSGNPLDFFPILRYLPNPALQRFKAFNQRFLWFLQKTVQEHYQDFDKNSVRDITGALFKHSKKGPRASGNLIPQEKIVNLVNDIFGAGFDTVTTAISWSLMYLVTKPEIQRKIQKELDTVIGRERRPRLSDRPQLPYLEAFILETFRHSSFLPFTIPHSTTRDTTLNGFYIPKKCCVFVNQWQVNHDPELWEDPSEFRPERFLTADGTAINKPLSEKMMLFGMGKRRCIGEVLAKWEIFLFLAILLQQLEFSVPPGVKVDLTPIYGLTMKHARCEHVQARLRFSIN
Description: (§1) Incubations were performed in 1× PBS (pH 7.4), containing 0, 0.156, 0.312, 0.625, 1.25, 2.5, 5, 10, 20, or 40 μM sepin-1, 2 pmol of each cDNA-expressed P450 enzymes, and corresponding substrates: CYP1A2 (phenacetin, 40 μM, 20 min incubation), 2B6 (efavirenz, 20 μM, 30 min), 2C8 (paclitaxel, 10 μM, 30 min), 2C9 (diclofenac, 5 μM, 15 min), 2C19 [(S)-mephenytoin, 40 μM, 20 min], 2D6 (dextromethorphan, 5 μM, 15 min), and CYP3A4 (midazolam, 3 μM, 10 min) in a final volume of 190 μl. After 5 min of pre-incubation at 37°C, the reaction was initiated by adding 10 μl of 20 mM NADPH (final concentration 1.0 mM) and continued for a specific time as presented above with gentle shaking. Incubations without sepin-1 were used as controls. Reactions were terminated by the addition of 200 μl of ice-cold methanol, vortexing for 30 s, and centrifuging at 15,000 × g for 15 min. Each supernatant was transferred to an auto sampler vial and 5.0 μl was injected on to UHPLC coupled with a QQQMS system for the specific metabolite analysis. A MRM method was used. Incubations were conducted in duplicate. Positive controls were performed by using a known specific inhibitor for each of the isoform assays (Supplementary Table S1). […]

CYP2C19 = biological target: T2, CYP2C19 (Homo sapiens, UniProt P33261); assay: Inhibition of sepin-1 on CYP2C19; type: in vitro ADME
T2 construct: purchased XenoTech
Description: as §1

[2] = system: cancer cell lines including breast cancer, leukemia, and neuroblastoma; design: method as in Zhang et al., 2014; conditions: ref Zhang et al., 2014; cited from earlier work
breast cancer xenografts = system: breast cancer xenografts; design: method as in Zhang et al., 2014; conditions: mice; ref Zhang et al., 2014; cited from earlier work

T2 sequence (P33261 whole entry): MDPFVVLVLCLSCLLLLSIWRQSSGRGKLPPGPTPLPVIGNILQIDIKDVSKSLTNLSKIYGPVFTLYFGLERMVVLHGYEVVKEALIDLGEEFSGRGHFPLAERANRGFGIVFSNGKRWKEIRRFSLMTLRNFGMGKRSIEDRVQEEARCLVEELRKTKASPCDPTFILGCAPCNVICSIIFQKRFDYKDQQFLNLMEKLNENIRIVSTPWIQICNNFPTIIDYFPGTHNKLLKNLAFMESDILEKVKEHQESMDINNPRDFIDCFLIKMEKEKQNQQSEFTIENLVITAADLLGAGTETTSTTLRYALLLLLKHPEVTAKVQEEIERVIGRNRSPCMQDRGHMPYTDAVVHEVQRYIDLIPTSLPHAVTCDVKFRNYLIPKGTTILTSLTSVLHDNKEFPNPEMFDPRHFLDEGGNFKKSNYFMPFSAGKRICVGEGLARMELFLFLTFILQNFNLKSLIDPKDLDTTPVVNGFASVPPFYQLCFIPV

Metabolism of parent in HLM (in words) [1]: metabolized rapidly
IC50 (CYP1A2; FDA classification bands, read-out: Inhibition potency class on CYP1A2): 1 to 10 µM
IC50 (CYP1A2; substrate phenacetin 40 μM, 20 min, metabolite acetaminophen, co-incubation, read-out: IC50 on CYP1A2): < 10 µM and 8.1 µM
IC50 (CYP2C19; FDA classification bands, read-out: Inhibition potency class on CYP2C19): 1 to 10 µM
IC50 (CYP2C19; substrate (S)-mephenytoin 40 μM, 20 min, metabolite 4-O-mephenytoin, co-incubation, read-out: IC50 on CYP2C19): < 10 µM and 8.9 µM
SMILES: CC1(C)[N+]([O-])=c2ccc([N+](=O)[O-])cc2=[N+]1[O-] [Sepin-1, 2,2-dimethyl-5-nitro-2H-benzimidazole-1,3-dioxide]
Inhibition of cancer cell line growth [2]: selectively inhibits the growth of cancer cell lines
Inhibition of breast cancer xenograft growth (breast cancer xenografts): inhibits the growth of breast cancer xenografts in mice
